The source made the active and inactive calls. The rule behind the calls is not given here.
Columns and labels:
[1] = tested on: Leishmania donovani; test: Antileishmanial activity against amastigote form of luciferase expressing Leishmania donovani MHOM/IN/80/Dd8 infected in mouse J774.A1 cells assessed as inhibition of parasite growth measured after 72 hrs by luciferase reporter gene assay; format: functional, organism-based; settings: MHOM/IN/80/Dd8, J774.A1, 72 h
[2] = Cytotoxicity against mouse J774.A1 cells assessed as reduction in cell viability incubated for 48 hrs by MTT assay; format: toxicity, cell-based
[3] = Safety index, ratio of CC50 for cytotoxicity against mouse J774.A1 cells to IC50 for antileishmanial activity against amastigote form of luciferase expressing Leishmania donovani MHOM/IN/80/Dd8 infected in mouse J774.A1; format: toxicity, cell-based; settings: read-out: Ratio CC50/IC50
[4] = tested on: Leishmania donovani; test: Antileishmanial activity against amastigote form of luciferase expressing Leishmania donovani MHOM/IN/80/Dd8 infected in mouse J774.A1 cells assessed as inhibition of parasite growth at 50 uM measured after 72 hrs by luciferase reporter gene assay; format: functional, organism-based
[5] = tested on: Leishmania infantum; test: Antileishmanial activity against promastigote form of Leishmania infantum BCN150 overexpressing iRFP assessed as inhibition of parasite growth measured after 52 hrs; format: functional, organism-based; settings: BCN150, 52 h
[6] = tested on: Leishmania infantum; test: Antileishmanial activity against amastigote form of Leishmania infantum BCN150 overexpressing iRFP assessed as inhibition of parasite growth measured after 52 hrs; format: functional, organism-based; settings: BCN150, 52 h
[7] = tested on: Leishmania donovani; test: Antileishmanial activity against amastigote form of Leishmania donovani infected in golden hamster assessed as reduction in parasite load in spleen at 50 mg/kg, ip administered for 5 days and measured on day 7 post-drug treatment by Giemsa staining based analysis; format: functional; settings: 288 h, time 12 day
[8] = tested on: Leishmania donovani; test: Antileishmanial activity against amastigote form of Leishmania donovani infected in golden hamster assessed as reduction in parasite load in spleen at 50 mg/kg, ip administered for 5 days and measured on day 28 post-dug treatment by Giemsa staining based analysis; format: functional; settings: 792 h, time 33 day
[9] = Toxicity against golden hamster infected with amastigote form of Leishmania donovani assessed as skin rashes at 50 mg/kg, ip administered for 5 days; format: organism-based, Mesocricetus auratus; settings: in vivo, 120 h, time 5 day
[10] = Toxicity against golden hamster infected with amastigote form of Leishmania donovani assessed as discomfort at 50 mg/kg, ip administered for 5 days; format: organism-based, Mesocricetus auratus; settings: in vivo, 120 h, time 5 day
[11] = Toxicity against golden hamster infected with amastigote form of Leishmania donovani assessed as animal's death at 50 mg/kg, ip administered for 5 days; format: organism-based, Mesocricetus auratus; settings: in vivo, 120 h, time 5 day
[12] = Cmax in golden hamster at 50 mg/kg, ip measured for 24 hrs by LC-MS/MS analysis; format: ADME, organism-based, Mesocricetus auratus; settings: in vivo
[13] = Tmax in golden hamster at 50 mg/kg, ip measured for 24 hrs by LC-MS/MS analysis; format: ADME, organism-based, Mesocricetus auratus; settings: in vivo
[14] = AUC in golden hamster at 50 mg/kg, ip measured for 24 hrs by LC-MS/MS analysis; format: ADME, organism-based, Mesocricetus auratus; settings: in vivo
[15] = Half life in golden hamster at 50 mg/kg, ip measured for 24 hrs by LC-MS/MS analysis; format: ADME, organism-based, Mesocricetus auratus; settings: in vivo
[16] = Clearance in golden hamster at 50 mg/kg, ip measured for 24 hrs by LC-MS/MS analysis; format: ADME, organism-based, Mesocricetus auratus; settings: in vivo
[17] = Volume of distribution in golden hamster at 50 mg/kg, ip measured for 24 hrs by LC-MS/MS analysis; format: ADME, organism-based, Mesocricetus auratus; settings: in vivo
[18] = MRT in golden hamster at 50 mg/kg, ip measured for 24 hrs by LC-MS/MS analysis; format: ADME, organism-based, Mesocricetus auratus; settings: in vivo
[19] = tested on: Leishmania donovani; test: Antileishmanial activity against Leishmania donovani assessed as inhibition of parasite growth; format: functional, organism-based

Compound	IC50 [1] [µM]	CC50 at 48 h [2] [µM]	selectivity ratio [3]	inhibition [4]	further results
OC(COc1ccc(-c2cc(-c3ccccc3)c3ccccc3n2)cc1)CN1CCN(c2ccccc2)CC1 (stereo not drawn)	5.39	21.5	3.98	–	–
CCCCCCCCCCCCCCCCOP(=O)([O-])OCC[N+](C)(C)C [MILTEFOSINE]	9.25	–	5.76	–	–
OC(COc1ccc(-c2cc(-c3ccccc3F)c3cc(Cl)ccc3n2)cc1)CN1CCCC1 (stereo not drawn)	2.4	22.7	9.41	–	–
NC(=O)C1CCN(CC(O)COc2ccc(-c3cc(-c4ccccc4)c4ccccc4n3)cc2)CC1 (stereo not drawn)	–	–	–	inactive	–
OC(COc1ccc(-c2cc(-c3ccccc3Cl)c3cc(Cl)ccc3n2)cc1)CN1CCN(c2ccccc2Cl)CC1 (stereo not drawn)	–	–	–	inactive	–
Cc1cc(-c2ccc(OCC(O)CN3CCN(c4cccc(Cl)c4Cl)CC3)cc2)nc2ccccc12 (stereo not drawn)	–	–	–	inactive	–
OC(COc1ccc(-c2cc(-c3ccccc3)c3cc(Cl)ccc3n2)cc1)CN1CCN(c2ccccc2)CC1 (stereo not drawn)	–	–	–	inactive	–
OC(COc1ccc(-c2cc(-c3ccccc3)c3ccccc3n2)cc1)CN1CCN(c2ccccc2F)CC1 (stereo not drawn)	–	–	–	inactive	–
COc1ccc(N2CCN(CC(O)COc3ccc(-c4cc(-c5ccccc5Cl)c5cc(Cl)ccc5n4)cc3)CC2)cc1 (stereo not drawn)	–	–	–	inactive	–
O=C(c1ccco1)N1CCN(CC(O)COc2ccc(-c3cc(-c4ccccc4Cl)c4cc(Cl)ccc4n3)cc2)CC1 (stereo not drawn)	–	–	–	inactive	–
OC(COc1ccc(-c2cc(-c3ccccc3)c3ccccc3n2)cc1)Cn1ccnc1 (stereo not drawn)	3.37	34	10.1	–	–
COc1ccccc1N1CCN(C(=O)CN(Cc2ccccc2)c2ccc(Cl)cc2)CC1	–	–	–	–	IC50 [5]: 3.61 µM; IC50 [6]: 44.1 µM
OC(COc1ccc(-c2cc(-c3ccccc3Cl)c3cc(Cl)ccc3n2)cc1)CN1CCN(c2cccc(Cl)c2Cl)CC1 (stereo not drawn)	5.39	63.5	11.8	–	inhibition in vivo at 50 mg/kg [7]: 40.7%; inhibition in vivo at 50 mg/kg [8]: 56.3%; Activity [9]: Non-Toxic; Activity [10]: Non-Toxic; Activity [11]: Non-Toxic; Cmax [12]: 9930 ng/mL; Tmax [13]: 2 h; AUC at 24 h [14]: 32900 ng·h/mL; half-life [15]: 5 h; CL/F [16]: 25.8 mL/min/kg; Vd [17]: 11.25 L/kg; MRT [18]: 5.56 h
Cc1ccc(Cl)cc1N1CCN(CC(O)COc2ccc(-c3cc(-c4ccccc4)c4ccccc4n3)cc2)CC1 (stereo not drawn)	–	–	–	inactive	–
O=[N+]([O-])c1ccc2nc(-c3ccc(OCC(O)CN4CCN(c5cccc(Cl)c5Cl)CC4)cc3)cc(-c3ccccc3)c2c1 (stereo not drawn)	–	–	–	inactive	–
OC(COc1ccc(-c2cc(-c3ccccc3)c3cc(Cl)ccc3n2)cc1)CN1CCCC1 (stereo not drawn)	2.09	21.4	10.3	–	inhibition in vivo at 50 mg/kg [7]: 27.8%; inhibition in vivo at 50 mg/kg [8]: 49.3%; Activity [9]: Non-Toxic; Activity [10]: Non-Toxic; Activity [11]: Non-Toxic; Cmax [12]: 17600 ng/mL; Tmax [13]: 2 h; AUC at 24 h [14]: 85000 ng·h/mL; half-life [15]: 4.67 h; CL/F [16]: 9.5 mL/min/kg; Vd [17]: 3.88 L/kg; MRT [18]: 6.35 h
OC(COc1ccc(-c2cc(-c3ccccc3)c3cc(Cl)ccc3n2)cc1)CN1CCN(c2cccc(Cl)c2Cl)CC1 (stereo not drawn)	–	–	–	inactive	–
Cc1ccc2c(-c3ccccc3)cc(-c3ccc(OCC(O)CN4CCN(c5cccc(Cl)c5Cl)CC4)cc3)nc2c1 (stereo not drawn)	–	–	–	inactive	–
OC(COc1ccc(-c2cc(-c3ccccc3)c3ccc(Br)cc3n2)cc1)CN1CCCC1 (stereo not drawn)	5.32	49.7	9.34	–	–

Compound	IC50 [1] [µM]	CC50 at 48 h [2] [µM]	selectivity ratio [3]	inhibition [4]	further results
OC(COc1ccc(-c2cc(-c3ccccc3F)c3cc(Cl)ccc3n2)cc1)CN1CCN(c2cccc(Cl)c2Cl)CC1 (stereo not drawn)	–	–	–	inactive	–
Cc1ncc([N+](=O)[O-])n1CC(O)COc1ccc(-c2cc(-c3ccccc3)c3ccccc3n2)cc1 (stereo not drawn)	–	–	–	inactive	–
O=C(c1ccco1)N1CCN(CC(O)COc2ccc(-c3cc(-c4ccccc4)c4cc(Cl)ccc4n3)cc2)CC1 (stereo not drawn)	8.13	57.8	7.1	–	–
OC(COc1ccc(-c2cc(-c3ccccc3)c3ccccc3n2)cc1)CN1CCN(c2ccccn2)CC1 (stereo not drawn)	7.01	27.2	3.88	–	–
OC(COc1ccc(-c2cc(-c3ccccc3)c3ccccc3n2)cc1)CN1CCN(c2cccc(Cl)c2Cl)CC1 (stereo not drawn)	–	–	–	inactive	–
CCOC(=O)N1CCN(CC(O)COc2ccc(-c3cc(-c4ccccc4)c4cc(Cl)ccc4n3)cc2)CC1 (stereo not drawn)	–	–	–	inactive	–
Cc1ccc(Cl)cc1N1CCN(CC(O)COc2ccc(-c3cc(-c4ccccc4Cl)c4cc(Cl)ccc4n3)cc2)CC1 (stereo not drawn)	–	–	–	inactive	–
OC(COc1ccc(-c2cc(-c3ccccc3Cl)c3cc(Cl)ccc3n2)cc1)CN1CCN(c2ccccc2)CC1 (stereo not drawn)	–	–	–	inactive	–
OC(COc1ccc(-c2cc(-c3ccccc3)c3ccc(Br)cc3n2)cc1)CN1CCN(c2cccc(Cl)c2Cl)CC1 (stereo not drawn)	–	–	–	inactive	–
OC(COc1ccc(-c2cc(-c3ccccc3)c3ccccc3n2)cc1)Cn1cncn1 (stereo not drawn)	–	–	–	inactive	–
O=C(c1ccco1)N1CCN(CC(O)COc2ccc(-c3cc(-c4ccccc4)c4ccccc4n3)cc2)CC1 (stereo not drawn)	8.22	21.8	2.64	–	–
OC(COc1ccc(-c2cc(-c3ccccc3)c3ccccc3n2)cc1)CN1CCCC1 (stereo not drawn)	4.38	20.8	4.73	–	–
OC(COc1ccc(-c2cc(-c3ccccc3Cl)c3cc(Cl)ccc3n2)cc1)CN1CCN(c2ccccn2)CC1 (stereo not drawn)	5.56	41.9	7.52	–	–
OC(COc1ccc(-c2ccc3ccccc3n2)cc1)CN1CCN(c2cccc(Cl)c2Cl)CC1 (stereo not drawn)	–	–	–	inactive	–
O=[N+]([O-])c1ccc2nc(-c3ccc(OCC(O)CN4CCCC4)cc3)cc(-c3ccccc3)c2c1 (stereo not drawn)	–	–	–	inactive	–
OC(COc1ccc(-c2ccc3ccccc3n2)cc1)CN1CCCC1 (stereo not drawn)	8.89	54.7	6.15	–	–
Cc1ccc2c(-c3ccccc3)cc(-c3ccc(OCC(O)CN4CCCC4)cc3)nc2c1 (stereo not drawn)	–	–	–	inactive	–
NC(CC(=O)N1CC(CO)C(c2ccc(Cl)cc2)C1)Cc1ccc(Cl)cc1 (stereo not drawn)	–	–	–	–	IC50 [19]: 0.093 µM
OC(COc1ccc(-c2cc(-c3ccccc3Cl)c3cc(Cl)ccc3n2)cc1)CN1CCN(c2ccccc2F)CC1 (stereo not drawn)	–	–	–	inactive	–

From ChEMBL document CHEMBL5634135, “Design, synthesis, and biological evaluation of quinoline-piperazine/pyrrolidine derivatives as possible antileishmanial agents” (Eur J Med Chem, 2023)
